In patent publication US20260035403A1, “NUCLEOSIDE LINE-1 INHIBITORS” (TRANSPOSON THERAPEUTICS, INC., priority 2022, published 2026):

Tested on: human LINE-1
Assay: Human LINE-1 retrotransposition assay (HeLa cell-based dual-luciferase reporter)
Conditions: Human LINE-1 activity inhibition, HeLa cells, reporter plasmid pYX017, Firefly/Renilla, 72 h incubation
Procedure, shortened: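 HeLa cells transfected with pYX017 dual-luciferase L1 reporter and treated with serially diluted compound (0.2% DMSO final) for 72 h at 37° C. Relative L1 activity as Firefly/Renilla ratio; IC50 from four-parameter logistic fit.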

SMILES	IC50 (Homo sapiens, HeLa, 72 h) [µM]	IC50 [µM]
C#C[C@]1(CO)OC(n2cc(OC)c(=O)[nH]c2=O)C[C@@H]1O (stereo partly drawn) [compound 59, 1-((4S,5R)-5-ethynyl-4-hydroxy-5-(hydroxymethyl)tetrahydrofuran-2-yl)-5-methoxypyrimidine-2,4(1H,3H)-dione]	20.9	
C#C[C@]1(CO)OC(n2cc(Br)c(N)nc2=O)C[C@@H]1O (stereo partly drawn) [compound 60, 4-amino-5-bromo-1-((4S,5R)-5-ethynyl-4-hydroxy-5-(hydroxymethyl)tetrahydrofuran-2-yl)pyrimidin-2(1H)-one]	5.65	
C#C[C@]1(CO)OC(n2cnc3c(OC)ncnc32)C[C@@H]1O (stereo partly drawn) [compound 61, (2R,3S)-2-ethynyl-2-(hydroxymethyl)-5-(6-methoxy-9H-purin-9-yl)tetrahydrofuran-3-ol]	7.43	
C=C[C@]1(CO)O[C@H](n2cc(C)c(=O)[nH]c2=O)C[C@@H]1O [compound 63, 1-((2S,4S,5R)-4-hydroxy-5-(hydroxymethyl)-5-vinyltetrahydrofuran-2-yl)-5-methylpyrimidine-2,4(1H,3H)-dione]	> 12.5	
C=C[C@]1(CO)O[C@H](n2cc(Br)c(=O)[nH]c2=O)C[C@@H]1O [compound 65, 5-bromo-1-((2S,4S,5R)-4-hydroxy-5-(hydroxymethyl)-5-vinyltetrahydrofuran-2-yl)pyrimidine-2,4(1H,3H)-dione]	21.9	
C=C[C@]1(CO)OC(n2cc(OC)c(=O)[nH]c2=O)C[C@@H]1O (stereo partly drawn) [compound 66, 1-((4S,5R)-4-hydroxy-5-(hydroxymethyl)-5-vinyltetrahydrofuran-2-yl)-5-methoxypyrimidine-2,4(1H,3H)-dione]	0.738	
C=C[C@]1(CO)OC(n2cc(Br)c(N)nc2=O)C[C@@H]1O (stereo partly drawn) [compound 67, 4-amino-5-bromo-1-((4S,5R)-4-hydroxy-5-(hydroxymethyl)-5-vinyltetrahydrofuran-2-yl)pyrimidin-2(1H)-one]	0.004	
CC[C@]1(CO)O[C@H](n2cc(C)c(=O)[nH]c2=O)CC1O (stereo partly drawn) [compound 71, 1-((2S,5R)-5-ethyl-4-hydroxy-5-(hydroxymethyl)tetrahydrofuran-2-yl)-5-methylpyrimidine-2,4(1H,3H)-dione]	1.6	
C#C[C@]1(CO)O[C@H](n2cnc3c(N)nc(N)nc32)C[C@@H]1O [compound 72, (2R,3S,5S)-5-(2,6-diamino-9H-purin-9-yl)-2-ethynyl-2-(hydroxymethyl)tetrahydrofuran-3-ol]	23.4	
C#C[C@@]1(CO)C=C[C@H](n2cc(SC(F)(F)F)c(=O)[nH]c2=O)O1 [compound 73, 1-((2R,5R)-5-ethynyl-5-(hydroxymethyl)-2,5-dihydrofuran-2-yl)-5-((trifluoromethyl)thio)pyrimidine-2,4(1H,3H)-dione]	> 50	
C#C[C@]1(CO)O[C@H](n2cnc3c(N)ncnc32)C[C@@H]1O [compound 80, (2R,3S,5S)-5-(6-amino-9H-purin-9-yl)-2-ethynyl-2-(hydroxymethyl)tetrahydrofuran-3-ol]	3.7	
C#C[C@]1(CO)OC(n2cnc3c(O)ncnc32)C[C@@H]1O (stereo partly drawn) [compound 81, 9-((4S,5R)-5-ethynyl-4-hydroxy-5-(hydroxymethyl)tetrahydrofuran-2-yl)-9H-purin-6-ol]	4.4	7.45
C#C[C@]1(CO)O[C@H](n2cnc3c(NC4CC4)nc(N)nc32)C[C@@H]1O [compound 83, (2R,3S,5S)-5-(2-amino-6-(cyclopropylamino)-9H-purin-9-yl)-2-ethynyl-2-(hydroxymethyl)tetrahydrofuran-3-ol]	0.429	
C#C[C@]1(CO)O[C@H](n2cnc3c(NC4CC4)nc(F)nc32)C[C@@H]1O [compound 84, (2R,3S,5S)-5-(6-(cyclopropylamino)-2-fluoro-9H-purin-9-yl)-2-ethynyl-2-(hydroxymethyl)tetrahydrofuran-3-ol]	14	
C#C[C@]1(CO)O[C@@H](n2cnc3c(NC4CC4)nc(F)nc32)C[C@@H]1O [compound 85, (2R,3S,5R)-5-(6-(cyclopropylamino)-2-fluoro-9H-purin-9-yl)-2-ethynyl-2-(hydroxymethyl)tetrahydrofuran-3-ol]	0.124	
C#C[C@]1(CO)O[C@@H](n2cnc3c(NC4CC4)ncnc32)C[C@@H]1O [compound 86, (2R,3S,5R)-5-(6-(cyclopropylamino)-9H-purin-9-yl)-2-ethynyl-2-(hydroxymethyl)tetrahydrofuran-3-ol]	3.4	
C=C[C@]1(CO)O[C@H](n2cnc3c(O)nc(N)nc32)C[C@@H]1O [compound 87, 2-amino-9-((2S,4S,5R)-4-hydroxy-5-(hydroxymethyl)-5-vinyltetrahydrofuran-2-yl)-9H-purin-6-ol]	0.173	
C=C[C@]1(CO)O[C@H](n2ccc(N)nc2=O)C[C@@H]1O [compound 89, 4-amino-1-((2S,4S,5R)-4-hydroxy-5-(hydroxymethyl)-5-vinyltetrahydrofuran-2-yl)pyrimidin-2(1H)-one]	1.28	

SMILES	IC50 (Homo sapiens, HeLa, 72 h) [µM]	IC50 [µM]
C#C[C@]1(CO)O[C@@H](N2C=NC3C(NC)=NC(F)=NC32)C[C@@H]1O (stereo partly drawn) [compound 93, (2R,3S,5R)-2-ethynyl-5-(2-fluoro-6-(methylamino)-4,5-dihydro-9H-purin-9-yl)-2-(hydroxymethyl)tetrahydrofuran-3-ol]	15	
Cc1cn([C@@H]2C[C@@H](O)[C@H](CO)O2)c(=O)[nH]c1=O [compound 95, 1-((2S,4R,5S)-4-hydroxy-5-(hydroxymethyl)tetrahydrofuran-2-yl)-5-methylpyrimidine-2,4(1H,3H)-dione]	> 50	
C#C[C@]1(CO)O[C@@H](n2cnc3c(OC)nc(N)nc32)C[C@@H]1O [compound 101, (2R,3S,5R)-5-(2-amino-6-methoxy-9H-purin-9-yl)-2-ethynyl-2-(hydroxymethyl)tetrahydrofuran-3-ol]	0.259	
C=C[C@]1(CO)O[C@H](Nc2[nH]c(=O)ncc2Br)C[C@@H]1O [compound 104, 5-bromo-6-(((2S,4S,5R)-4-hydroxy-5-(hydroxymethyl)-5-vinyltetrahydrofuran-2-yl)amino)pyrimidin-2(1H)-one]	4.9	
CC[C@]1(CO)O[C@@H](n2cc(Br)c(N)nc2=O)C[C@@H]1O [compound 105, 4-amino-5-bromo-1-((2R,4S,5R)-5-ethyl-4-hydroxy-5-(hydroxymethyl)tetrahydrofuran-2-yl)pyrimidin-2(1H)-one]	0.15	
C#C[C@@]1(COC)C=C[C@H](n2cc(C)c(=O)[nH]c2=O)O1 [compound 106, 1-((2R,5R)-5-ethynyl-5-(methoxymethyl)-2,5-dihydrofuran-2-yl)-5-methylpyrimidine-2,4(1H,3H)-dione]	24	
COC[C@@H]1C=C[C@H](n2cc(C)c(=O)[nH]c2=O)O1 [compound 107, 1-((2R,5S)-5-(methoxymethyl)-2,5-dihydrofuran-2-yl)-5-methylpyrimidine-2,4(1H,3H)-dione]	7.3	
Nc1nc(=O)n([C@H]2C[C@@H]3OC=C[C@]3(CO)O2)cc1F [compound 139, 4-amino-5-fluoro-1-((2R,3aS,6aR)-6a-(hydroxymethyl)-2,3,3a,6a-tetrahydrofuro[3,2-b]furan-2-yl)pyrimidin-2(1H)-one]	3.17	
Nc1nc(F)nc2c1ncn2[C@H]1C[C@H](O)C(CO)(CO)O1 [compound 154, ((3S,5R)-5-(6-amino-2-fluoro-9H-purin-9-yl)-3-hydroxytetrahydrofuran-2,2-diyl)dimethanol]	> 40	
COc1nc(N)nc2c1ncn2[C@H]1C[C@H](O)[C@](CO)(CF)O1 [compound 163, (2R,3S,5R)-5-(2-amino-6-methoxy-9H-purin-9-yl)-2-(fluoromethyl)-2-(hydroxymethyl)tetrahydrofuran-3-ol]	14	
N#C[C@]1(CO)O[C@@H](n2cc(Cl)c(N)nc2=O)C[C@@H]1O [compound 164, (2R,3S,5R)-5-(4-amino-5-chloro-2-oxopyrimidin-1(2H)-yl)-3-hydroxy-2-(hydroxymethyl)tetrahydrofuran-2-carbonitrile]	> 50	
CNc1nc(N)nc2c1ncn2[C@H]1C[C@H](O)[C@](CO)(CF)O1 [compound 166, (2R,3S,5R)-5-(2-amino-6-(methylamino)-9H-purin-9-yl)-2-(fluoromethyl)-2-(hydroxymethyl)tetrahydrofuran-3-ol]	0.417	
CC[C@]1(CO)O[C@@H](n2cnc3c(N)nc(Cl)nc32)[C@@H](F)[C@@H]1O [compound 182, (2R,3R,4S,5R)-5-(6-amino-2-chloro-9H-purin-9-yl)-2-ethyl-4-fluoro-2-(hydroxymethyl)tetrahydrofuran-3-ol]		293
C[C@]1(CO)O[C@@H](n2cc(F)c(=O)[nH]c2=O)[C@H](O)[C@@H]1O [compound 189, 1-((2R,3R,4S,5R)-3,4-dihydroxy-5-(hydroxymethyl)-5-methyltetrahydrofuran-2-yl)-5-fluoropyrimidine-2,4(1H,3H)-dione]	9.17	
CC[C@]1(CO)O[C@@H](n2cnc3c(N)nc(Cl)nc32)C[C@@H]1O [compound 190, (2R,3S,5R)-5-(6-amino-2-chloro-9H-purin-9-yl)-2-ethyl-2-(hydroxymethyl)tetrahydrofuran-3-ol]	~50	
CC[C@]1(CO)O[C@@H](n2cnc3c(N)nc(F)nc32)[C@@H](F)[C@@H]1O [compound 191, (2R,3R,4S,5R)-5-(6-amino-2-fluoro-9H-purin-9-yl)-2-ethyl-4-fluoro-2-(hydroxymethyl)tetrahydrofuran-3-ol]		56
CC[C@]1(CO)O[C@@H](n2cnc3c(N)ncnc32)[C@@H](F)[C@@H]1O [compound 192, (2R,3R,4S,5R)-5-(6-amino-9H-purin-9-yl)-2-ethyl-4-fluoro-2-(hydroxymethyl)tetrahydrofuran-3-ol]	0.122	
CC[C@]1(CO)O[C@@H](n2cnc3c(N)nc(Cl)nc32)[C@@H](O)[C@@H]1O [compound 193, (2R,3S,4S,5R)-5-(6-amino-2-chloro-9H-purin-9-yl)-2-ethyl-2-(hydroxymethyl)tetrahydrofuran-3,4-diol]	2.81	
